Source: the supplement of paper PMC10307832

Legend:
Experiment in all cases: relative viability (nuclei count vs DMSO), 5 days (fraction); higher = more cells survive
[1] = compound: C=CCc1cccc(/C=N/NC(=O)CN2CCN(Cc3ccccc3)CC2)c1O [PAC-1] + COc1cc2c(Oc3ccc(NC(=O)C4(C(=O)Nc5ccc(F)cc5)CC4)cc3F)ccnc2cc1OCCCN1CCOCC1 [Foretinib] (partner 0.25 µM)
How it was run: (§1)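 Values are medians from duplicate plates. Each reflects relative viability, defined as the nuclei count of treated wells over that of vehicle wells. Lung cancer cell lines in 1536-well plates were pin-tool dosed one day after seeding with one drug alone or with a fixed anchor-drug dose plus five library-drug doses (not always all listed) in √10 steps, then fixed, stained and imaged at 4× after 5 days.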

[2] = compound: C=CCc1cccc(/C=N/NC(=O)CN2CCN(Cc3ccccc3)CC2)c1O [PAC-1] + COc1cccc2cc(-c3nc([C@H]4CC[C@H](C(=O)O)CC4)n4ncnc(N)c34)[nH]c12 [OSI-027] (partner 0.5 µM)
How it was run: as §1

[3] = compound: C=CCc1cccc(/C=N/NC(=O)CN2CCN(Cc3ccccc3)CC2)c1O [PAC-1] + Cc1nc(NC(=O)N2CCC[C@H]2C(N)=O)sc1-c1ccnc(C(C)(C)C(F)(F)F)c1 [Alpelisib] (partner 2 µM)
How it was run: as §1

[4] = compound: C=CCc1cccc(/C=N/NC(=O)CN2CCN(Cc3ccccc3)CC2)c1O [PAC-1] + NC(=O)Nc1cc(-c2cccc(F)c2)sc1C(=O)N[C@H]1CCCNC1 [AZD7762] (partner 0.2 µM)
How it was run: as §1

[5] = compound: C=CCc1cccc(/C=N/NC(=O)CN2CCN(Cc3ccccc3)CC2)c1O [PAC-1] + Nc1nc2[nH]cc(CCc3ccc(C(=O)N[C@@H](CCC(=O)O)C(=O)O)cc3)c2c(=O)[nH]1 [Pemetrexed] (partner 0.2 µM)
How it was run: as §1

Row | Cell Line | relative viability ([1]; first compound 0.02 µM) | relative viability ([1]; first compound 0.06325 µM) | relative viability ([1]; first compound 0.2 µM) | relative viability ([1]; first compound 2 µM) | relative viability ([2]; first compound 0.02 µM) | relative viability ([2]; first compound 0.06325 µM) | relative viability ([2]; first compound 0.2 µM) | relative viability ([2]; first compound 2 µM) | relative viability ([3]; first compound 0.02 µM) | relative viability ([3]; first compound 0.06325 µM) | relative viability ([3]; first compound 0.2 µM) | relative viability ([3]; first compound 2 µM) | relative viability ([4]; first compound 0.02 µM) | relative viability ([4]; first compound 0.06325 µM) | relative viability ([4]; first compound 0.2 µM) | relative viability ([4]; first compound 2 µM) | relative viability ([5]; first compound 0.02 µM) | relative viability ([5]; first compound 0.06325 µM) | relative viability ([5]; first compound 0.2 µM) | relative viability ([5]; first compound 2 µM)
1 | LXF-289 | 0.907 | 1.02 | 1 | 0.934 | 0.764 | 0.835 | 0.739 | 0.789 | 1.1 | 1.02 | 1.06 | 1.01 | 1.09 | 1.11 | 0.987 | 1.08 | 0.857 | 0.859 | 0.873 | 0.916
2 | NCI-H23 | 1.08 | 0.954 | 0.844 | 0.965 | 0.629 | 0.493 | 0.589 | 0.65 | 0.529 | 0.692 | 0.741 | 0.764 | 0.242 | 0.349 | 0.244 | 0.314 | 0.623 | 0.705 | 0.817 | 0.775
3 | NCI-H322M | 0.859 | 0.948 | 0.986 | 0.887 | 0.547 | 0.586 | 0.543 | 0.505 | 0.7 | 0.857 | 0.794 | 0.911 | 0.573 | 0.618 | 0.706 | 0.584 | 0.591 | 0.65 | 0.618 | 0.603
4 | NCI-H358 | 0.622 | 0.573 | 0.645 | 0.574 | 0.7 | 0.632 | 0.693 | 0.631 | 0.811 | 0.836 | 0.924 | 0.572 | 0.51 | 0.507 | 0.55 | 0.402 | 0.165 | 0.161 | 0.187 | 0.183
